Measurements as given in US20250243180A1, “TARGETED PROTEIN DEGRADATION” (Monte Rosa Therapeutics AG, priority 2023, published 2025).
pIC50: −log10 of the molar value.

What was measured:
[1] = tested on: New Zealand White rabbits, MSU crystal gout model; assay: In vivo rabbit gout model (intra-articular MSU): joint swelling and CD31 staining; conditions: daily prophylactic treatment
Procedure: MSU crystals were prepared by dissolving uric acid (Aladdin, cat #U105582) in boiling water (1 g in 200 mL with 6 mL of 1 N NaOH). PH value was adjusted to 7.2 by HCl. The solution was stirred and cooled to room temperature and stored at 4° C. overnight. The precipitate was filtered with filter paper and dried under low heat to obtain MSU crystals. New Zealand White rabbits received an intra-articular injection of 1 mL of MSU crystals (50 mg/mL) into both knees (MSU group) or PBS (as vehicle, control group). n=10 for MSU groups; n=6 for PBS group.
For immunohistochemistry, bone sections were stained with anti-CD31 (Abcam #ab9498) diluted at 1:500. The nuclei were stained with hematoxylin. Slides were scanned using LEICA Aperio GT450 at 400× magnification. The number of positive blood vessels were counted blindly.
(a) To determine NEK7 degradation, spleens and peripheral blood mononuclear cells (PBMC) were analyzed by JESS for NEK7 and normalized to α-Tubulin from five representative animals. (b) The degree of joint swelling was determined by caliper measurements at the indicated time points. (c) Rabbit bone tissue sections were stained and quantified for anti-CD31 immunohistochemistry. Results expressed as mean±SEM. Statistical analysis was performed using two-way ANOVA. The difference was considered significant when p<0.05.

Caspase-1 activity = Caspase-1 activity in human monocyte-derived macrophages, LPS/MSU stimulation; format: cell-based; conditions: 24 h pre-treatment, LPS + MSU 6 h, eight donors
Procedure: (§1) Human monocytes were enriched and isolated from a buffy coat of whole blood with a RosetteSep™ Human Monocyte Enrichment Cocktail (Cat.No. 15068, StemCell) and Ficoll-Plaque PLUS (Cat.No. H8889, Sigma). Monocytes were differentiated into macrophages by treatment with 100 ng/mL M-CSF for 6 days at 37° C., 5% CO2. Differentiated macrophages were seeded overnight (50,000 cells/well) in 100 μL of medium in a 96-well white-bottom plate at 37° C., 5% CO2. Cells were treated with a concentration range of MGD or the NLRP3 inhibitor selnoflast (Cat.No. HY-132831, MedChemExpress) for 24 h prior to stimulation with monosodium urate crystals (MSU). Macrophages were stimulated with […] lipopolysaccharide (LPS) and 0.2 mg/mL MSU for 6 h. Medium of stimulated macrophages were collected and assayed for caspase-1 activity directly (Promega G9951) as well as IL-1β (Promega W6010), according to manufacturer's instructions.
(§2) (a, b) Human monocyte-derived macrophages pre-treated with a dose-response of Compound 14 or selnoflast (NLRP3 inhibitor) for 24 h and stimulated with a combination of lipopolysaccharide (LPS) and monosodium urate crystals (MSU) for 6 h prior to supernatant collection. Monocytes were isolated from eight human donors. Caspase-1 (a) and IL-1β (b) in the supernatant are measured and data are expressed as percentage relative to mean values of DMSO conditions for each donor (technical triplicates). Means of eight donors are plotted and analyzed using a four-parameter logistic regression model.

IL-1β = IL-1β in human monocyte-derived macrophages, LPS/MSU stimulation; format: cell-based; conditions: 24 h pre-treatment, LPS + MSU 6 h, eight donors
Procedure: as §1, §2

pIC50 (Caspase-1 activity; Homo sapiens, Macrophage) | pIC50 (IL-1β; Homo sapiens, Macrophage) | SMILES | CD31 staining in bone tissue [1] | joint swelling induced by intra-articular MSU injection [1] | Caspase-1 activity Imax (Caspase-1 activity) | IL-1β Imax (IL-1β)
– | – | C[C@]12C=CC(=O)C=C1CC[C@@H]1[C@@H]2[C@@H](O)C[C@@]2(C)[C@H]1CC[C@]2(O)C(=O)CO [prednisolone] | improvement | improvement | – | –
6.07 | 6.13 | CCN1CCC(S(=O)(=O)NC(=O)Nc2c3c(cc4c2CCC4)CCC3)CC1 [selnoflast, reference compound] | improvement | improvement | 89% | 79%
